One series relates to Sphaerotheca fuliginea. Briefly: Sphaerotheca test (cucumber)/protective, Example H. It counts as in vivo. The following applies: Sphaerotheca fuliginea on cucumber, protective, application rate 750 g/ha, evaluation 7 days after inoculation. Here is the method:
Sphaerotheca Test (Cucumber)/Protective [table] To produce a suitable preparation of active compound, 1 part by weight of active compound is mixed with the stated amounts of solvent and emulsifier, and the concentrate is diluted with water to the desired concentration. To test for protective activity, young cucumber plants are sprayed with the preparation of active compound at the stated application rate. 1 day after the treatment, the plants are inoculated with a spore suspension of Sphaerotheca fuliginea. The plants are then placed in a greenhouse at 70% relative atmospheric humidity and a temperature of 23° C. Evaluation is carried out 7 days after the inoculation. 0% means an efficacy which corresponds to that of the control, whereas an efficacy of 100% means that no infection is observed.

The subject of series [1] is larvae of the mustard beetle (Phaedon cochleariae). Briefly: Phaedon test (spray treatment), Example E. It counts as in vivo. The following applies: Table E. The procedure:
(§1) Phaedon Test (Spray Treatment) [table] To produce a suitable preparation of active compound, 1 part by weight of active compound is mixed with the stated amounts of solvents and emulsifier, and the concentrate is diluted with emulsifier-containing water to the desired concentration. Discs of Chinese cabbage (Brassica pekinensis) are sprayed with a preparation of active compound of the desired concentration and, after they have dried, populated with larvae of the mustard beetle (Phaedon cochleariae). After the desired period of time, the activity in % is determined 100% means that all beetle larvae have been killed; 0% means that none of the beetle larvae have been killed.

The test system of series [2] is greenhouse red spider mite (Tetranychus urticae). Briefly: Tetranychus test (OP-resistant/spray treatment), Example G. The format is in vivo. As to conditions: Tetranychus urticae (OP-resistant), bean leaf discs, spray treatment, 500 g/ha. The procedure:
Tetranychus Test (OP-Resistant/Spray Treatment)
(§2) To produce a suitable preparation of active compound, 1 part by weight of active compound is mixed with the stated amounts of solvents and emulsifier, and the concentrate is diluted with emulsifier-containing water to the desired concentration.
Discs of bean leaves (Phaseolus vulgaris) which are infested by all stages of the greenhouse red spider mite (Tetranychus urticae) are sprayed with a preparation of active compound of the desired concentration.
After the desired period of time, the activity in % is determined 100% means that all spider mites have been killed; 0% means that none of the spider mites have been killed.

The subject of series [3] is caterpillars of the army worm (Spodoptera frugiperda). The experiment in a line: Spodoptera frugiperda test (spray treatment), Example B. The format is in vivo. The following applies: Table B, 500 g/ha active compound. The procedure:
as §1, with “Spodoptera frugiperda” for “Phaedon”, “maize leaves (Zea mays)” for “Chinese cabbage (Brassica pekinensis)”, “caterpillars” for “larvae”, “army worm (Spodoptera frugiperda).” for “mustard beetle (Phaedon cochleariae).”, “caterpillars” for “beetle larvae”

The test system of series [4] is green peach aphid (Myzus persicae). Briefly: Myzus test (spray treatment), Example D. The format is in vivo. The following applies: Table D. Here is the method:
Myzus Test (Spray Treatment)
as §2
Discs of Chinese cabbage (Brassica pekinensi), which are infested by all stages of the green peach aphid (Myzus persicae) are sprayed with a preparation of active compound of the desired concentration.
After the desired period of time, the activity in % is determined 100% means that all aphids have been killed; 0% means that none of the aphids have been killed.

In series [5] the test system is caterpillars of the army worm (Spodoptera frugiperda). Briefly: Spodoptera frugiperda test (spray treatment), Example F. The following applies: maize leaf discs, 500 g/ha. It counts as in vivo. The procedure: as §1, with “Spodoptera frugiperda” for “Phaedon”, “maize leaves (Zea mays)” for “Chinese cabbage (Brassica pekinensis)”, “caterpillars” for “larvae”, “army worm (Spodoptera frugiperda).” for “mustard beetle (Phaedon cochleariae).”, “caterpillars” for “beetle larvae”

The test system of series [6] is monocotyledonous and dicotyledonous weed and crop plants. The experiment in a line: Herbicidal post-emergence action, Example J. The format is in vivo. The following applies: Greenhouse, 320 g a.i./ha, about 3 weeks. The procedure:
Herbicidal Post-Emergence Action Seeds of monocotyledonous and dicotyledonous weed and crop plants are placed into sandy loam in woodfibre pots, covered with soil and cultivated in a greenhouse under good growth conditions. 2-3 weeks after sowing, the test plants are treated at the one-leaf stage. The test compounds formulated as wettable powders (WP) are, in various dosages with a water application rate of 600 l/ha (converted), with 0.2% of wetting agent added, sprayed onto the green parts of the plants. After the test plants have been kept in the greenhouse under optimum growth conditions for about 3 weeks, the effect of the preparations is rated visually in comparison to untreated controls (herbicidal effect in percent (%): 100% effect=plants have died, 0% effect=like control plants).

The next series deals with Meloidogyne incognita. Briefly: Meloidogyne test, Example C. It counts as in vivo. As to conditions: Table C, 20 ppm active compound, nematicidal effect by formation of galls. The procedure:
Meloidogyne Test [table] To produce a suitable preparation of active compound, 1 part by weight of active compound is mixed with the stated amounts of solvent, and the concentrate is diluted with water to the desired concentration. Containers are filled with sand, solution of active compound, Meloidogyne incognita egg/larvae suspension and lettuce seeds. The lettuce seeds germinate and the plants develop. On the roots, galls are formed. After the desired period of time, the nematicidal effect is determined in % by the formation of galls. 100% means that no galls have been found; 0% means that the number of galls on the treated plants corresponds to that of the untreated control.

The test system of series [7] is larvae of the mustard beetle (Phaedon cochleariae). Briefly: Phaedon test (spray treatment), Example A. The following applies: Table A, 500 g/ha active compound. It counts as in vivo. The procedure: as §1

Take `Cc1ccc(-c2cccc(Cl)c2)cc1-c1c(OC(=O)C(C)(C)C)n2n(c1=O)CCCC2` [Ex. I-1-b-3]: the Efficacy in % with Sphaerotheca fuliginea stood at 90%.

In the case of `Cc1ccc(-c2ccc(Cl)cc2)cc1-c1c(OC(=O)C(C)(C)C)n2n(c1=O)CCCC2` [Ex. I-1-b-4], the “Kill rate in % after 7d” value in series [1] (500 g/ha active compound) and in series [3] was 100% throughout. Also, the “Kill rate in % after 5d” value in series [2] worked out at 100%.

Turning to `Cc1ccc(-c2ccc(Cl)cc2Cl)cc1-c1c(OC(=O)C(C)(C)C)n2n(c1=O)CCCC2` [Ex. I-1-b-11], in series [4] (500 g/ha active compound), the “Kill rate in % after 5d” value is recorded as 100%. Also, the “Kill rate in % after 7d” value in [5] turned out to be 100%.

Take `Cc1ccc(-c2ccc(F)c(Cl)c2)cc1-c1c(OC(=O)C(C)(C)C)n2n(c1=O)CCCC2` [Ex. I-1-b-17]: the “Kill rate in % after 5d” value in series [4] (500 g/ha active compound) was found to be 90%. The “Kill rate in % after 7d” value in [5] was 100%.

On to `Cc1ccc(-c2ccc(C(F)(F)F)cc2)cc1-c1c(OC(=O)C(C)(C)C)n2n(c1=O)CCCC2` [Ex. I-1-b-20], for which, in series [6], the “herbicidal effect in percent, Avena fatua” value was found to be 80%; the “herbicidal effect in percent, Lolium” value worked out at 80%; the “herbicidal effect in percent, Setaria” value was determined as 90%.

Regarding `Cc1ccc(-c2ccc(C(C)C)cc2)cc1-c1c(OC(=O)C(C)(C)C)n2n(c1=O)CCCC2` [Ex. I-1-b-30], the “Kill rate in % after 5d” value in [4] (500 g/ha active compound) is listed as 100%.

`Cc1ccc(-c2ccc(F)cc2)cc1-c1c(OC(=O)C2CC2)n2n(c1=O)CCCC2` [Ex. I-1-b-33]: in series [4] (100 g/ha active compound), the “Kill rate in % after 5d” value worked out at 100%.

Turning to `CCOC(=O)Oc1c(-c2cc(-c3ccc(Cl)cc3)ccc2C)c(=O)n2n1CCCC2` [Ex. I-1-c-4], the “Kill rate in % after 7d” value in series [3] amounted to 100%.

Consider `CCOC(=O)Oc1c(-c2cc(-c3ccc(F)cc3F)ccc2C)c(=O)n2n1CCCC2` [Ex. I-1-c-15], for which the “Kill rate in % after 7d” value in series [1] (500 g/ha active compound) amounted to 100%. The “Kill rate in % after 5d” value in series [4] (500 g/ha active compound) and in series [2] was 100% in each case.

On to `CCOC(=O)Oc1c(-c2cc(-c3ccc(C(F)(F)F)cc3)ccc2C)c(=O)n2n1CCCC2` [Ex. I-1-c-19], for which, in [6], the “herbicidal effect in percent, Avena fatua” value stood at 70%; the “herbicidal effect in percent, Lolium” value is 80%; the “herbicidal effect in percent, Setaria” value stood at 100%.

For `Cc1ccc(-c2ccc(Cl)c(Cl)c2)cc1-c1c(OC(=O)C(C)(C)C)n2n(c1=O)CCOCC2` [Ex. I-2-b-13], the “Kill rate in % after 5d” value in series [4] (500 g/ha active compound) is listed as 100%.

For `Cc1ccc(-c2ccc(F)cc2F)cc1-c1c(OC(=O)C(C)(C)C)n2n(c1=O)CCOCC2` [Ex. I-2-b-15], in series [4] (500 g/ha active compound), the “Kill rate in % after 5d” value worked out at 100%. Besides, the “Kill rate in % after 7d” value in series [5] is listed as 100%.

Turning to `COc1ccccc1-c1ccc(C)c(-c2c(OC(=O)C(C)(C)C)n3n(c2=O)CCOCC3)c1` [Ex. I-2-b-21], the “Kill rate in % after 5d” value in series [4] (500 g/ha active compound) was 100%.

Turning to `Cc1ccc(-c2ccc(C(C)C)cc2)cc1-c1c(OC(=O)C(C)(C)C)n2n(c1=O)CCOCC2` [Ex. I-2-b-30], in [4] (500 g/ha active compound), the “Kill rate in % after 5d” value was 100%.

With `Cc1ccc(-c2ccc(Cl)cc2)cc1-c1c(OC(=O)C(C)C)n2n(c1=O)CCOCC2` [Ex. I-2-b-31], the “Kill rate in % after 5d” value in [4] (500 g/ha active compound) came to 100%.

For the compound `CCOC(=O)Oc1c(-c2cc(-c3ccc(F)cc3)ccc2C)c(=O)n2n1CCOCC2` [Ex. I-2-c-6], the “Kill rate in % after 5d” value in series [4] (100 g/ha active compound) was found to be 100%. In addition, the “Effect in % after 14d” value in the series with Meloidogyne incognita is given as 90%.

Consider `CCOC(=O)Oc1c(-c2cc(-c3cc(F)ccc3F)ccc2C)c(=O)n2n1CCOCC2` [Ex. I-2-c-16], for which the “Kill rate in % after 5d” value in series [4] (500 g/ha active compound) stood at 100%.

Regarding `Cc1ccc(-c2ccc(F)cc2)cc1-c1c(O)n2n(c1=O)CCCC2` [Example I-1-a-1], the melting point was 172 °C. Also, in the series with Meloidogyne incognita, the “Effect in % after 14d” value is 80%.

For `Cc1ccc(-c2ccc(Cl)cc2)cc1-c1c(O)n2n(c1=O)CCCC2` [Example I-1-a-4], in series [7], the “Kill rate in % after 7d” value turned out to be 100%.

With `Cc1ccc(-c2cc(Cl)ccc2Cl)cc1-c1c(O)n2n(c1=O)CCCC2` [Example I-1-a-12], in [6], the “herbicidal effect in percent, Avena fatua” value turned out to be 80%; the “herbicidal effect in percent, Lolium” value came out at 70%; the “herbicidal effect in percent, Setaria” value was found to be 70%.

In the case of `COc1cccc(-c2ccc(C)c(-c3c(O)n4n(c3=O)CCCC4)c2)c1` [Example I-1-a-22], the “herbicidal effect in percent, Amaranthus” value in [6] (Amaranthus) is 70%. Further, in series [6], the “herbicidal effect in percent, Lolium” value amounted to 100% and the “herbicidal effect in percent, Setaria” value is 90%.

`Cc1ccc(-c2ccc(F)cc2)cc1-c1c(OC(=O)C(C)(C)C)n2n(c1=O)CCCC2` [Example I-1-b-1]: the “Kill rate in % after 7d” value in series [1] (500 g/ha active compound) is on record as 100%. This compound registered an Efficacy in % in the series with Sphaerotheca fuliginea of 94%. Also, in the series with Meloidogyne incognita, the “Effect in % after 14d” value was 90%.

For the compound `CCOC(=O)Oc1c(-c2cc(-c3ccc(F)cc3)ccc2C)c(=O)n2n1CCCC2` [Example I-1-c-1], the “Kill rate in % after 7d” value in series [1] (100 g/ha active compound) came out at 100%. Besides, in [6], the “herbicidal effect in percent, Avena fatua” value amounted to 90%; the “herbicidal effect in percent, Lolium” value was 90%; the “herbicidal effect in percent, Setaria” value worked out at 80%. Moreover, the “Kill rate in % after 5d” value in series [4] (100 g/ha active compound) stood at 100%. Moreover, the Efficacy in % in the series on Sphaerotheca fuliginea is on record as 80%.

As for `Cc1cc(C)c(-c2c(O)n3n(c2=O)CCOCC3)c(C)c1-c1ccc(F)cc1` [Example I-2-a-32], the “Kill rate in % after 5d” value in series [4] (500 g/ha active compound) was 90%.

(Values after patent US8987500B2, “4-biphenyl-substituted pyrazolidin-3,5-dione derivatives” (Bayer CropScience AG, priority 2003, dated 2015).)
